What was measured:
Type in all cases: functional, cell-based
P388 = experiment: Cytotoxicity against mouse P388 cells
A549 = experiment: Cytotoxicity against human A549 cells
HT-29 = experiment: Cytotoxicity against human HT-29 cells
SK-MEL-28 = experiment: Cytotoxicity against human SK-MEL-28 cells

Measured: IC50

C[C@@H](c1nccs1)N(C)C(=O)[C@H](C[C@H](C)C(Cl)(Cl)Cl)NC(=O)C[C@H](C)C(Cl)(Cl)Cl [PSEUDODYSIDENIN]
> 1 µg/mL: all assays above

— ChEMBL document CHEMBL1155707, “New lipopeptides from the Caribbean cyanobacterium Lyngbya majuscula” (J Nat Prod, 2001)
